Test system: C57BL/6 mice
Assay: Cy5-mRNA biodistribution, ex vivo organ fluorescence after IV injection
Type: in vivo, mouse
Conditions: 0.5 mg/kg mRNA IV, 6 h
Description: FIG. 1B illustrates ex vivo fluorescence of Cy5-labelled mRNA in major organs extracted from C57BL/6 mice intravenously injected with example SORT LNPs (as described herein) that incorporate increasing percentages of different SORT molecules (0.5 mg/kg mRNA/body weight, 6 h).
FIG. 1C illustrates relative average Cy5 fluorescence measured in the liver, lung, and spleen as a function of SORT molecule percent inclusion (0.5 mg/kg mRNA/body weight, n=2). SORT molecules promote mRNA biodistribution to target organs. Data are shown as mean±s.e.m.
We first investigated the biodistribution of mRNA encapsulated in example SORT LNPs to determine whether there was a correlation between the organs in which the SORT LNPs accumulated and their tissue-specific mRNA activity. We formulated example liver, lung, and spleen SORT LNPs encapsulating Cy5-labelled mRNA following the identical protocols and formulation parameters used in our previous publications. We administered each LNP IV to C57BL/6 mice and tracked the in vivo biodistribution of the Cy5-mRNA using fluorescence imaging. Six hours post-injection, organs were excised and imaged ex vivo (FIG. 1B). The average fluorescence produced by the liver, spleen, and lungs was quantified (FIG. 1C). […] Importantly, these tracking studies quantify where the example SORT LNPs biodistribute but not where mRNA is translated to protein (functional delivery).

Structure (SMILES): CCCCCCCC/C=C\CCCCCCCC(=O)OCC(CN(C)C)OC(=O)CCCCCCC/C=C\CCCCCCCC (stereo not shown) [DODAP, 1,2-Dioleoyl-3-dimethylammonium-propane]
- SORT molecule inclusion giving optimal liver biodistribution: 20%
